These results are taken from patent US20070232601A1, “Vla-4 Inhibitor” (priority 2004, published 2007).

Series [1] deals with T1, hα4 and β1 integrins (VLA-4) (Homo sapiens, UniProt P05556+P13612).
T1 construct: expressed in transfected cells; host or cells: CHO cells
The series can be described thus: In vitro evaluation: inhibition of binding of CHO cells expressing hα4 and β1 integrins to Eu3+-hVCAM-1 D1D7-IgG. As to conditions: ligand Eu3+-hVCAM-1 D1D7-IgG 2 nM, Ki calculated from IC50. The procedure, abridged: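 CHO cells stably expressing hα4β1 were cultured 2 days, then incubated 1 h at room temperature with Eu3+-hVCAM-1 D1D7-IgG (added as 2 nM solution) and compound in HEPES pH 7.5 with Ca2+, Mg2+ and 4 mM Mn2+, ± 6% human serum albumin. Bound europium was read by time-resolved fluorescence; IC50 was converted to Ki using Scatchard-derived Kd.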

Series [2] is described as follows: Dispersibility test in Japanese Pharmacopoeia First and Second Solution. Type of series: physicochemical. The settings on record: for Dispersibility in Japanese Pharmacopoeia First Solution: JP1, pH 1.2; for Dispersibility in Japanese Pharmacopoeia Second Solution: JP2, pH 6.8. The protocol: Dispersibility of a test substance in Japanese Pharmacopoeia First Solution (JP1, pH 1.2) and Japanese Pharmacopoeia Second Solution (JP2, pH 6.8) was evaluated.

The structures appear in SMILES notation.

The Ki is the dissociation constant of the complex between target and ligand, obtained from inhibition or displacement.

T1 sequence (P13612 34-1032): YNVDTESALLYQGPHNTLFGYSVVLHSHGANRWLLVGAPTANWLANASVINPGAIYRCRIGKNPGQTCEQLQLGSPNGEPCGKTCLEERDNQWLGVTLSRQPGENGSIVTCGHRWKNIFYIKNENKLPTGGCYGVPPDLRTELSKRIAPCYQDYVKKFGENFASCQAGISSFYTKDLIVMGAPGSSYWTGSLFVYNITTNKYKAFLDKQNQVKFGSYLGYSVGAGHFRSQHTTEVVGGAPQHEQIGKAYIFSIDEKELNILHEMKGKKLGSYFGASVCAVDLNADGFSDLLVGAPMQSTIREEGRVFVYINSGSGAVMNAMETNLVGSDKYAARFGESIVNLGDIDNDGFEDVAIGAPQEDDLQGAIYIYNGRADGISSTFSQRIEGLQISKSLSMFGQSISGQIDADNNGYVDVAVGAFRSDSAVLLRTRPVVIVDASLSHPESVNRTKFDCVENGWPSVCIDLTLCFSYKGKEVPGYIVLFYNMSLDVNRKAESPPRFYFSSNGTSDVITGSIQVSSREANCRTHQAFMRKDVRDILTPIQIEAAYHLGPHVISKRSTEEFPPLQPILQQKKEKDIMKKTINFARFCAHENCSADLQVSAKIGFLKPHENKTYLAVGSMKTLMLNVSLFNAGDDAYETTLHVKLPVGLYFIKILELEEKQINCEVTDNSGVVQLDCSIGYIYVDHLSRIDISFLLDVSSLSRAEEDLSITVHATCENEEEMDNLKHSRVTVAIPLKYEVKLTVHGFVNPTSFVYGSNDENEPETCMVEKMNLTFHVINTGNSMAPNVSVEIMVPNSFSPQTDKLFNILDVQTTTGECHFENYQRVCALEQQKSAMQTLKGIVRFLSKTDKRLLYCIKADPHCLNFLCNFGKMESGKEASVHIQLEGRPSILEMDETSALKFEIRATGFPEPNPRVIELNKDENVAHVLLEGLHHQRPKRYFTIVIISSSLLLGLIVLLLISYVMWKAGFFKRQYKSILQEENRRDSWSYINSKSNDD
T1 sequence (P05556 21-798): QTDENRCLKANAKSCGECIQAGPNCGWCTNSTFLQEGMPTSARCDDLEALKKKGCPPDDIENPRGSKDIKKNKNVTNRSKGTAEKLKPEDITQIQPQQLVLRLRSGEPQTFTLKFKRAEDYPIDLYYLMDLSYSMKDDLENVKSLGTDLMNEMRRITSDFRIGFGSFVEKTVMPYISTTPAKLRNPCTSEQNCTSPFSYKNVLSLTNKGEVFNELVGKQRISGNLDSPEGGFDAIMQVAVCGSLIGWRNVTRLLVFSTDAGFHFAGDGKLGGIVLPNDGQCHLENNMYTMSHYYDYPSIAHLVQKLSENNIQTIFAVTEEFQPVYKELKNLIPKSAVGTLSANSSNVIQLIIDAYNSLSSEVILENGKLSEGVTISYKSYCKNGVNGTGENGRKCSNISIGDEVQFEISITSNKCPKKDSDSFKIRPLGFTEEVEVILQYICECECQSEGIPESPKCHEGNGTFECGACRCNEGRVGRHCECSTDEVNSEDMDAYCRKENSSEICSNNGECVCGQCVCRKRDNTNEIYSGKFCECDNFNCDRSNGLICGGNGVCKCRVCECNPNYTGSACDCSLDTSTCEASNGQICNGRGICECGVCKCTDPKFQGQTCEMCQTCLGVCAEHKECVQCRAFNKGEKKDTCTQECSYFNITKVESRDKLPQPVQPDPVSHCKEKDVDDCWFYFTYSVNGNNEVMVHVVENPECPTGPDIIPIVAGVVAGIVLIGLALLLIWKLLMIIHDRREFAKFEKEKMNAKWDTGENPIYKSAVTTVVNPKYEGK

On to `C[C@@H]1CN([C@H]2C[C@@H](c3ncc(CCC(=O)O)s3)N(C(=O)Cc3cc(Cl)c(NC(=O)c4csc5ccccc45)cc3Cl)C2)C[C@H](C)O1` [Example 88, 3-[2-[1-[4-(3-Benzo[b]thiophenylcarbonylamino)-2,5-dichlorophenylacetyl]-(4S)-[4-(cis-2,6-dimethyl)morpholinyl]-(2S)-pyrrolidinyl]-5-thiazolyl]propionic acid], for which the Ki in series [1] is 1.2 nM. Moreover, in series [2], the “Dispersibility in Japanese Pharmacopoeia First Solution” value worked out at 1200 µg/mL and the “Dispersibility in Japanese Pharmacopoeia Second Solution” value stood at 1400 µg/mL.

Consider `O=C(O)CCc1cnc([C@@H]2C[C@H](N3CCC(F)(F)CC3)CN2C(=O)Cc2cc(Cl)c(NC(=O)c3csc4ccccc34)cc2F)s1` [Example 75, 3-[2-[1-[4-(3-Benzo[b]thiophenylcarbonylamino)-5-chloro-2-fluorophenylacetyl]-(4S)-[1-(4,4-difluoro)piperidinyl]-(2S)-pyrrolidinyl]-5-thiazolyl]propionic acid], for which the Ki in series [1] is 0.47 nM. Moreover, in series [2], the “Dispersibility in Japanese Pharmacopoeia First Solution” value was found to be 220 µg/mL and the “Dispersibility in Japanese Pharmacopoeia Second Solution” value is 160 µg/mL.

Consider `CO[C@H]1C[C@@H](c2ncc(CCC(=O)O)s2)N(C(=O)Cc2cc(Cl)c(Nc3nc4ccccc4o3)cc2Cl)C1` [Example 109, 3-[2-[1-[4-(2-Benzoxazolyl)amino-2,5-dichlorophenyl)acetyl-(4S)-methoxy-(2S)-pyrrolidinyl]-5-thiazolyl]propionic acid], for which the Ki in series [1] was 6.3 nM. Besides, in series [2], the “Dispersibility in Japanese Pharmacopoeia First Solution” value turned out to be 480 µg/mL and the “Dispersibility in Japanese Pharmacopoeia Second Solution” value turned out to be 750 µg/mL.

Regarding `COC1CN([C@H]2C[C@@H](c3ncc(CCC(=O)O)s3)N(C(=O)Cc3cc(Cl)c(NC(=O)c4cn(C)c5ccccc45)cc3Cl)C2)C1` [Example 64, 3-[2-[1-[2,5-Dichloro-4-(1-methyl-3-indolylcarbonylamino)phenylacetyl]-(4S)-[1-(3-methoxy)-azetidinyl]-(2S)-pyrrolidinyl]-5-thiazolyl]propionic acid], the inhibition constant Ki in series [1] was 3.8 nM. For the same compound, in series [2], the “Dispersibility in Japanese Pharmacopoeia First Solution” value was determined as 1000 µg/mL and the “Dispersibility in Japanese Pharmacopoeia Second Solution” value was 1000 µg/mL.

Regarding `O=C(O)CCc1cnc([C@@H]2[C@@H](O)CCN2C(=O)Cc2ccc(Nc3nc4ccccc4s3)c(Cl)c2)s1` [Example 119, 3-[2-[1-[4-(2-Benzothiazolyl)amino-3-chlorophenyl]acetyl-(3S)-hydroxy-(2S)-pyrrolidinyl]-5-thiazolyl]propionic acid], the Ki in series [1] was 6.2 nM. Moreover, in series [2], the “Dispersibility in Japanese Pharmacopoeia First Solution” value stood at 730 µg/mL and the “Dispersibility in Japanese Pharmacopoeia Second Solution” value turned out to be 730 µg/mL.

For the compound `O=C(O)CCc1cnc([C@@H]2C[C@H](N3CCC(F)(F)CC3)CN2C(=O)Cc2cc(Cl)c(NC(=O)c3coc4ccccc34)cc2Cl)s1` [Example 78, 3-[2-[1-[4-(3-Benzo[b]furanylcarbonylamino)-2,5-dichlorophenylacetyl]-(4S)-[1-(4,4-difluoro)piperidinyl]-(2S)-pyrrolidinyl]-5-thiazolyl]propionic acid], the Ki in series [1] was 1.2 nM. Further, in series [2], the “Dispersibility in Japanese Pharmacopoeia First Solution” value is 260 µg/mL and the “Dispersibility in Japanese Pharmacopoeia Second Solution” value stood at 230 µg/mL.

`COC1CN([C@H]2C[C@@H](c3ncc(CCC(=O)O)s3)N(C(=O)Cc3cc(Cl)c(NC(=O)c4coc5ccccc45)cc3F)C2)C1` [Example 67, 3-[2-[1-[4-(3-Benzo[b]furanylcarbonylamino)-5-chloro-2-fluorophenylacetyl]-(4S)-[1-(3-methoxy)azetidinyl]-(2S)-pyrrolidinyl]-5-thiazolyl]propionic acid]: the inhibition constant (Ki) in series [1] was 1.2 nM. Besides, in series [2], the “Dispersibility in Japanese Pharmacopoeia First Solution” value was determined as 1000 µg/mL and the “Dispersibility in Japanese Pharmacopoeia Second Solution” value was found to be 1000 µg/mL.

Turning to `CO[C@H]1C[C@@H](c2ncc(CCC(=O)O)s2)N(C(=O)Cc2cc(Cl)c(Nc3nc4cc(F)ccc4s3)cc2F)C1` [Example 113, 3-[2-[1-[4-(5-Fluoro-2-benzothiazolyl)amino-5-chloro-2-fluorophenyl]acetyl-(4S)-methoxy-(2S)-pyrrolidinyl]-5-thiazolyl]propionic acid], in series [1], the Ki is 5 nM. In addition, in series [2], the “Dispersibility in Japanese Pharmacopoeia First Solution” value worked out at 180 µg/mL and the “Dispersibility in Japanese Pharmacopoeia Second Solution” value came to 770 µg/mL.

Take `CCOC1CN([C@H]2C[C@@H](c3ncc(CCC(=O)O)s3)N(C(=O)Cc3cc(Cl)c(NC(=O)c4csc5ccccc45)cc3F)C2)C1` [Example 71, 3-[2-[1-[4-(3-Benzo[b]thiophenylcarbonylamino)-5-chloro-2-fluorophenylacetyl]-(4S)-1-(3-ethoxy)azetidinyl-(2S)-pyrrolidinyl]-5-thiazolyl]propionic acid]: in series [1], the inhibition constant (Ki) is 0.5 nM. Moreover, in series [2], the “Dispersibility in Japanese Pharmacopoeia First Solution” value is 940 µg/mL and the “Dispersibility in Japanese Pharmacopoeia Second Solution” value stood at 940 µg/mL.

Take `CO[C@H]1C[C@@H](c2ncc(CCC(=O)O)s2)N(C(=O)Cc2ccc(Nc3nc4ccccc4o3)c(Cl)c2)C1` [Example 107, 3-[2-[1-[4-(2-Benzoxazolyl)amino-3-chlorophenyl]acetyl-(4S)-methoxy-(2S)-pyrrolidinyl]-5-thiazolyl]propionic acid]: in series [1], the Ki is 9.2 nM. In series [2], the “Dispersibility in Japanese Pharmacopoeia First Solution” value is 700 µg/mL and the “Dispersibility in Japanese Pharmacopoeia Second Solution” value amounted to 700 µg/mL.

Regarding `Cn1cc(C(=O)Nc2cc(F)c(CC(=O)N3C[C@@H](N4CCC(F)(F)CC4)C[C@H]3c3ncc(CCC(=O)O)s3)cc2Cl)c2ccccc21` [Example 73, 3-[2-[1-[5-Chloro-2-fluoro-4-(1-methyl-3-indolylcarbonylamino)phenylacetyl]-(4S)-[1-(4,4-difluoro)piperidinyl]-(2S)-pyrrolidinyl]-5-thiazolyl]propionic acid], the Ki in series [1] is 1.1 nM. In addition, in series [2], the “Dispersibility in Japanese Pharmacopoeia First Solution” value was 230 µg/mL and the “Dispersibility in Japanese Pharmacopoeia Second Solution” value came out at 290 µg/mL.

`C[C@@H]1CN([C@H]2C[C@@H](c3ncc(CCC(=O)O)s3)N(C(=O)Cc3cc(Cl)c(NC(=O)c4coc5ccccc45)cc3Cl)C2)C[C@H](C)O1` [Example 90]: in series [1], the Ki was 1.3 nM. Besides, in series [2], the “Dispersibility in Japanese Pharmacopoeia First Solution” value came out at 1100 µg/mL and the “Dispersibility in Japanese Pharmacopoeia Second Solution” value amounted to 1300 µg/mL.

With `CO[C@@H]1C[C@@H](c2ncc(CCC(=O)O)s2)N(C(=O)Cc2cc(Cl)c(NC(=O)c3csc4ccccc34)cc2F)C1` [Example 25, 3-[2-[1-[4-[(3-Benzo[b]thienylcarbonyl)amino]-5-chloro-2-fluorophenylacetyl]-(4R)-methoxy-(2S)-pyrrolidinyl]-5-thiazolyl]propionic acid], the Ki in series [1] was 0.84 nM. For the same compound, in series [2], the “Dispersibility in Japanese Pharmacopoeia First Solution” value was determined as 7 µg/mL and the “Dispersibility in Japanese Pharmacopoeia Second Solution” value was determined as 330 µg/mL.

For the compound `O=C(O)CCc1cnc([C@@H]2C[C@H](Oc3cccnc3)CN2C(=O)Cc2cc(Cl)c(NC(=O)c3csc4ccccc34)cc2F)s1` [Example 45, 3-[2-[1-[4-[(3-Benzo[b]thienylcarbonyl)amino]-5-chloro-2-fluorophenylacetyl]-(4S)-(3-pyridyloxy)-(2S)-pyrrolidinyl]-5-thiazolyl]propionic acid], the Ki in series [1] is 1.6 nM. In series [2], the “Dispersibility in Japanese Pharmacopoeia First Solution” value was 2000 µg/mL and the “Dispersibility in Japanese Pharmacopoeia Second Solution” value was determined as 200 µg/mL.

As for `CCOC1CN([C@H]2C[C@@H](c3ncc(CCC(=O)O)s3)N(C(=O)Cc3cc(Cl)c(NC(=O)c4cn(C)c5ccccc45)cc3F)C2)C1` [Example 69, 3-[2-[1-[5-Chloro-2-fluoro-4-(1-methyl-3-indolylcarbonylamino)phenylacetyl]-(4S)-[1-(3-ethoxy)azeditinyl]-(2S)-pyrroldinyl]-5-thiazolyl]propionic acid], the Ki in series [1] was 0.71 nM. For the same compound, in series [2], the “Dispersibility in Japanese Pharmacopoeia First Solution” value amounted to 940 µg/mL and the “Dispersibility in Japanese Pharmacopoeia Second Solution” value is 940 µg/mL.

Regarding `O=C(O)CCc1cnc([C@@H]2C[C@H](N3CCN(CC(F)(F)F)CC3)CN2C(=O)Cc2cc(Cl)c(NC(=O)c3csc4ccccc34)cc2Cl)s1` [Example 82], in series [1], the inhibition constant Ki was 1.3 nM. For the same compound, in series [2], the “Dispersibility in Japanese Pharmacopoeia First Solution” value amounted to 96 µg/mL and the “Dispersibility in Japanese Pharmacopoeia Second Solution” value is 320 µg/mL.

With `CO[C@H]1C[C@@H](c2ncc(CCC(=O)O)s2)N(C(=O)Cc2cc(Cl)c(Nc3nc4ccccc4s3)cc2Cl)C1` [Example 112, 3-[2-[1-[4-(2-Benzothiazolyl)amino-2,5-dichlorophenyl]acetyl-(4S)-methoxy-(2S)-pyrrolidinyl]-5-thiazolyl]propionic acid], the inhibitory constant (Ki) in series [1] was 1.9 nM. Also, in series [2], the “Dispersibility in Japanese Pharmacopoeia First Solution” value is 420 µg/mL and the “Dispersibility in Japanese Pharmacopoeia Second Solution” value was 770 µg/mL.

On to `CO[C@H]1C[C@@H](c2ncc(CCC(=O)O)s2)N(C(=O)Cc2cc(Cl)c(Nc3nc4ccccc4s3)cc2F)C1` [Example 111, 3-[2-[1-[4-(2-Benzothiazolyl)amino-5-chloro-2-fluorophenyl]acetyl-(4S)-methoxy-(2S)-pyrrolidinyl]-5-thiazolyl]propionic acid], for which the Ki in series [1] is 3.3 nM. Also, in series [2], the “Dispersibility in Japanese Pharmacopoeia First Solution” value is 570 µg/mL and the “Dispersibility in Japanese Pharmacopoeia Second Solution” value was determined as 750 µg/mL.

Turning to `COc1ccccc1Nc1nc2ccc(CC(=O)N3C[C@@H](OC)C[C@H]3c3ncc(CCC(=O)O)s3)c(F)c2o1` [Example 10, 3-[2-[1-[[7-Fluoro-2-(2-methoxyphenylamino)-1,3-benzoxazol-6-yl]acetyl]-(4S)-methoxy-(2S)-pyrrolidinyl]-5-thiazolyl]propionic acid], the Ki in series [1] was 0.56 nM. In series [2], the “Dispersibility in Japanese Pharmacopoeia First Solution” value came out at 1700 µg/mL and the “Dispersibility in Japanese Pharmacopoeia Second Solution” value is 2000 µg/mL.
